What was measured:
[1] = tested on: Rankl; assay: Rankl transcript levels by RT-PCR in mouse mammary organoids stimulated ex vivo; assay type: cell-based; conditions: for Rankl transcript levels over vehicle-treated control: BalbC females, 6 h of stimulation
Method: (§1) Next, we stimulated mouse mammary organoids derived from several BalbC females with R5020 or different progestins (Fig 1A). […] No significant change in Rankl and Wnt4 transcript levels was detected during the first 2 h (Appendix Fig S1D). By 6 h of R5020 stimulation, Rankl and Wnt4 transcript levels increased 22.4 and 5.8‐fold over the vehicle‐treated control, respectively.
(§2) Animal experiments were performed in accordance with protocol approved by the Service de la Consommation et des Affaires vétérinaires of Canton de Vaud (VD 1865.3, VD 1865.4). NOD. Cg‐Prkdc^scid Il2rg^tm1Wjl/SzJ mice (Charles River), BalbC, and C57Bl6 breeders were purchased from Jackson Laboratories. Mammary glands were isolated from 18‐ to 35‐week‐old mice, lymph nodes removed, minced with surgical blades, and digested in DMEM/F12, 1% penicillin/streptomycin B with collagenase A 0.25 mg/ml (Roche). […] Fat was removed, and pellet containing organoids washed with phosphate‐buffered saline (PBS), resuspended 5 min in 3 ml red cell blood lysis buffer and washed twice with PBS.
(§3) Human breast microstructures and mouse organoids were homogenized in Trizol (Invitrogen). Aqueous phase containing RNA was chloroform extracted and processed with miRNeasy extraction kit (Qiagen). cDNA was synthesized using random p(dN)6 primers (Roche) and MMLV reverse transcriptase (Invitrogen). SYBR Green PCR Core Reagent System (Qiagen) was used for semi‐quantitative real time (RT‐PCR) using the following primers.

[2] = tested on: Wnt4; assay: Wnt4 transcript levels by RT-PCR in mouse mammary organoids stimulated ex vivo; assay type: cell-based; conditions: for Wnt4 transcript levels over vehicle-treated control: BalbC females, 6 h of stimulation
Method: as §1, §2, §3

[3] = tested on: endogenous hormone levels in mice; assay: Endogenous steroid hormone plasma levels in treated host mice by LC-MS; assay type: in vivo, mouse; conditions: xenografted NSG females with pellets
Description: Next, we assessed whether progesterone and progestins differentially affected endogenous hormone levels in mice. Plasma 17‐β‐estradiol levels were not affected by any of the treatments (Fig 4H). […] Plasma testosterone levels were not altered by any treatment with the exception of DSP, which decreased them (Fig 4H). Thus, prolonged exposures to progestins differentially affect endogenous progesterone plasma levels and DSP decreases testosterone plasma levels in host mice.

[4] = tested on: AR; parameters: method as in earlier work; conditions: various assays, ref Fuhrmann et al, 1995, Muhn et al, Bouchard, 2005, Mishell, 2008, Schneider et al, 2009, Africander et al, 2011, Louw‐du Toit et al, 2017; cited from earlier work
[5] = tested on: HBECs; assay: In vivo growth of intraductal HBEC xenografts measured by radiance; conditions: 60 days of treatment, subcutaneous pellets
Description: To compare the effects of progesterone and different progestins on HBECs in vivo, we infected single cell suspensions obtained from fresh reduction mammoplasty specimens with GFP‐luciferase2‐expressing lentiviruses. The infected cell mixture was grafted intraductally to up to 5 glands of as many recipients as possible. The engraftment and growth of the xenografted cells were monitored weekly by in vivo imaging. When radiance reached > 10E07 on average per mammary gland, 60‐day‐release pellets were implanted subcutaneously, usually within 3–10 weeks after cell injection. At sacrifice, blood was collected and plasma levels of the administered compounds as well as endogenous steroid hormones were determined by liquid chromatography‐mass spectrometry (LC‐MS) (Laszlo et al, 2019).
Next, the in vivo growth of HBEC xenografts stimulated with progesterone or different progestins was analyzed. […] In addition, the fold change radiance of treated versus untreated samples at endpoint was calculated (Fig 5A–C).
Mice were anesthetized by intraperitoneal injection with 10 mg/kg xylazine and 90 mg/kg ketamine (Graeub) and injected intraductally with 10 μl cell suspension per gland. Bioluminescence imaging was performed as described (Sflomos et al, 2016). After 3–10 weeks, when bioluminescence from individual glands reached 10^7 total flux (p/s/cm2/sr), animals were assigned to different treatment groups and hormone pellets implanted subcutaneously. Enzalutamide (Selleckchem, Catalog No. S1250) dissolved in 15% DMSO in PEG300 was injected intraperitoneally 3 times/week at 30 mg/kg.
Pellets were prepared by mixing the required amount of part A, MP3745/E81949 and part B, MP3744/E81950 of low consistency silicon elastomer (MED‐4011) and hormone powder to homogeneity. Mix was transferred to a syringe and incubated at 37°C overnight. The silicon‐hormone mass was removed from the syringe and cut to pieces, as described (Duss et al, 2007). The original protocol was adapted for different doses as described below.

[6] = tested on: HBECs; assay: MKI67/Ki67 expression in xenografted HBECs; assay type: in vivo, human; conditions: 21 days pellets; for cell proliferation (KI67 and hECAD double+ cells), overall analysis: HBECs from 11 different patients; for cell proliferation (KI67 and hECAD double+ cells): one mammoplasty (M310)
Description: (§4) Next, we sought for a readout of in vivo cell proliferation different from radiance. […] Given that MKI67 expression could replace the luciferase measurements as a readout, we used a modified experimental setup for a second round of experiments. We derived HBECs from viably frozen mammoplasty samples (Appendix Table S3) and engrafted them to different mammary glands of NSG females without viral infection. Four months later, the 24 recipient females, each engrafted with 5 different mammoplasties received pellets containing either vehicle, progesterone, or 1 of 6 progestins for 21 days. At sacrifice, xenografted glands were histologically sectioned and cell proliferation was quantified using co‐IF with anti‐MKI67 and anti‐hECAD antibodies. For one of the mammoplasties, we were able to obtain measurements for all experimental conditions (Fig 5I). […] For the remaining mammoplasties, between 3 and 8 different experimental conditions were successfully quantified (Appendix Table S4). […] CPA (P < 0.0001) decreased proliferation, whereas CMA and DSP had no effect (Fig 5K). As AR signaling increases AR protein levels, we performed co‐IF for AR and hECAD as another means to assess AR signaling activity.
(§5) Tissues were fixed for 2 h at room temperature in 4% paraformaldehyde and paraffin‐embedded. Dewaxed and rehydrated paraffin sections were pretreated in 10 mM Na citrate (pH 6.0) at 95° for 20 min. Blocking was performed with 1% BSA for 60 min. Primary antibodies used were as follows: Ki67 (rabbit α‐Ki67, clone Sp6, Spring Amsbio, dilution 1:200), ER (rabbit α‐ER, clone Sp1, Zytomed RTU), PR (rabbit α‐PR, clone 1E2, Ventana RTU), AR (rabbit α‐AR, clone SP107, Thermo Fisher, diluted 1:200), CK7 (rabbit α‐CK7, clone Sp52, Abcam, diluted 1:500), CK19 (mouse KS19.2 (Z105.6), American Research Products Inc. (diluted 1:50), and mouse α‐ECAD (clone G‐10, sc‐8426, diluted 1:100). For IHC, chromogenic revelation was performed with ChromoMap DAB kit (Roche Diagnostics, Switzerland) and sections were counterstained with Mayer’s hematoxylin. For fluorescence microscopy, nuclei were counterstained with DAPI (Sigma). IHC for ER, PR, and AR was performed on Discovery Ventana ULTRA (44). IHC images were acquired on Leica DM 2000 with Leica DFC450 C camera. IF images were acquired on Zeiss LSM700 confocal microscope. Slides were scanned with Olympus VS120‐L100 slide scanner with 20×/0.75 objective and Pike F505 C Color camera. Images were loaded into QuPath using the BioFormats extension (Bankhead et al, 2017).

[7] = tested on: AR; assay: Percentage of AR+ cells in xenografted HBECs by co-IF for AR and hECAD; assay type: in vivo, human; conditions: 21 days pellets, HBECs from 11 different patients
Description: as §4, §5

[8] = BalbC-derived organoids, 24 h of stimulation

| Compound | Rankl transcript levels over vehicle-treated control [1] | Rankl transcript induction [1, 8] | Rankl transcript induction ([1]; C57Bl/6 mice, 6 h, 20 nM) | Wnt4 transcript levels over vehicle-treated control [2] | Wnt4 transcript induction [2, 8] | Wnt4 transcript induction ([2]; C57Bl/6 mice, 6 h, 20 nM) | endogenous progesterone plasma levels (estrous cycle-related variation) [3] | androgenic / anti-androgenic activity [4] | growth (course of radiance) of engrafted HBECs versus control [5] | relative radiance at endpoint over control (FC) [5] | cell proliferation (KI67 and hECAD double+ cells), overall analysis [6] | cell proliferation (KI67 and hECAD double+ cells) [6] | percentage of AR+ cells (AR index) [7] | plasma testosterone levels [3] |
| --- | --- | --- | --- | --- | --- | --- | --- | --- | --- | --- | --- | --- | --- | --- |
| CC(=O)O[C@]1(C(C)=O)CC[C@H]2[C@@H]3C=C(Cl)C4=CC(=O)CC[C@]4(C)[C@H]3CC[C@@]21C [CMA, chlormadinone acetate] | failed to affect Rankl transcript levels at all | no effect | failed to increase Rankl transcript levels | did not alter Wnt4 transcript levels | no effect | did not alter Wnt4 transcript levels | tendency toward higher average level of progesterone | anti‐androgenic activity | Neither CMA nor CPA had any effect on the growth | 0.7 fold | no effect | no effect | no effect | – |
| CC(=O)O[C@]1(C(C)=O)CC[C@H]2[C@@H]3C=C(Cl)C4=CC(=O)[C@@H]5C[C@@H]5[C@]4(C)[C@H]3CC[C@@]21C [CPA, cyprotherone acetate] | failed to affect Rankl transcript levels at all | no effect | failed to increase Rankl transcript levels | did not alter Wnt4 transcript levels | no effect | 2 fold | did not affect | anti‐androgenic activity | Neither CMA nor CPA had any effect on the growth | 0.7 fold | decreased | decreased | decreased | – |
| C[C@]12CCC(=O)C=C1[C@@H]1C[C@@H]1[C@H]1[C@@H]3[C@@H]4C[C@@H]4[C@@]4(CCC(=O)O4)[C@@]3(C)CC[C@@H]12 [DSP, drospirenone] | failed to affect Rankl transcript levels at all | no effect | failed to increase Rankl transcript levels | did not alter Wnt4 transcript levels | no effect | did not alter Wnt4 transcript levels | suppressed | anti‐androgenic activity | failed to affect | 1.4 fold | no effect | no effect | decreased | decreased |
